Test results reported in PubChem BioAssay AID1919008 (Molecular Pharmacology Branch, DTP, NCI, 2023).

System: DMS-114 complex spheroids with HUVEC/MSC, growth % test/control
Assay: Anticancer human tumor DMS-114 cell line growth inhibition [AhR];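 further: spheroids exposed to agents for 7 days before readout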;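 on viability, T/C: 100% = DMSO vehicle control wells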
Settings: for IC50: curve of first compound; for viability, T/C: stronger effect = lower value
Summary of the method: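 Complex tumor spheroids co-cultured with HUVEC and human MSC stroma; AhR antagonists tested in combination with standard-of-care and investigational agents. Top concentration at or near clinical Cmax (else 10 microM), half-log dilutions; growth expressed as percent test/control.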

[1] = second compound 0.1 µM, first compound 0.0316 µM
[2] = second compound 0.1 µM, first compound 0.1 µM
[3] = second compound 0.1 µM, first compound 0.316 µM
[4] = second compound 0.1 µM, first compound 1 µM
[5] = second compound 0.1 µM, first compound 3.16 µM
[6] = second compound 0.1 µM, first compound 10 µM
[7] = second compound 0.316 µM, first compound 0.0316 µM
[8] = second compound 0.316 µM, first compound 0.1 µM
[9] = second compound 0.316 µM, first compound 0.316 µM
[10] = second compound 0.316 µM, first compound 1 µM
[11] = second compound 0.316 µM, first compound 3.16 µM
[12] = second compound 0.316 µM, first compound 10 µM
[13] = second compound 1 µM, first compound 0.0316 µM
[14] = second compound 1 µM, first compound 0.1 µM
[15] = second compound 1 µM, first compound 0.316 µM
[16] = second compound 1 µM, first compound 1 µM
[17] = second compound 1 µM, first compound 3.16 µM
[18] = second compound 1 µM, first compound 10 µM
[19] = second compound 3.16 µM, first compound 0.0316 µM
[20] = second compound 3.16 µM, first compound 0.1 µM
[21] = second compound 3.16 µM, first compound 0.316 µM
[22] = second compound 3.16 µM, first compound 1 µM
[23] = second compound 3.16 µM, first compound 3.16 µM
[24] = second compound 3.16 µM, first compound 10 µM
[25] = second compound 10 µM, first compound 0.0316 µM
[26] = second compound 10 µM, first compound 0.1 µM
[27] = second compound 10 µM, first compound 0.316 µM
[28] = second compound 10 µM, first compound 1 µM
[29] = second compound 10 µM, first compound 3.16 µM
[30] = second compound 10 µM, first compound 10 µM

`CC(C)c1c(-c2ccccc2)nc2c(C#N)c[nH]n2c1=O` + Cc1ccccc1N=Nc1ccc(NC(=O)c2ccnn2C)c(C)c1 was tested, and the IC50 (second compound 0.1 µM) was > 10000 nM, the IC50 (second compound 0.316 µM) was > 10000 nM and the IC50 (second compound 1 µM) was > 10000 nM. For the same compound, the IC50 (second compound 3.16 µM) was > 10000 nM, the IC50 (second compound 10 µM) was > 10000 nM and the viability, T/C [1] was 104%. It also gave a viability, T/C [2] of 108%, a viability, T/C [3] of 105% and a viability, T/C [4] of 103%. It also gave a viability, T/C [5] of 113%, a viability, T/C [6] of 95.9% and a viability, T/C [7] of 95.5%. For the same compound, the viability, T/C [8] was 97.7%, the viability, T/C [9] was 98.9% and the viability, T/C [10] was 94.3%. For the same compound, the viability, T/C [11] was 95.9%, the viability, T/C [12] was 101% and the viability, T/C [13] was 95.3%. For the same compound, the viability, T/C [14] was 96.8%, the viability, T/C [15] was 102% and the viability, T/C [16] was 103%. The viability, T/C [17] was 95.3%, the viability, T/C [18] was 99.2% and the viability, T/C [19] was 96%. It also gave a viability, T/C [20] of 95.8%, a viability, T/C [21] of 93% and a viability, T/C [22] of 96.3%. For the same compound, the viability, T/C [23] was 107%, the viability, T/C [24] was 102% and the viability, T/C [25] was 98.3%. The viability, T/C [26] was 96.9%, the viability, T/C [27] was 95.6% and the viability, T/C [28] was 90.5%. It also gave a viability, T/C [29] of 94.7% and a viability, T/C [30] of 88.8%.
`CC1COCCN1c1cc(-c2ccnn2C)c2ccnc(-c3ccn[nH]3)c2n1` (stereo not given) + Cc1ccccc1N=Nc1ccc(NC(=O)c2ccnn2C)c(C)c1 gave an IC50 (second compound 0.1 µM) of 620 nM, an IC50 (second compound 0.316 µM) of 500 nM and an IC50 (second compound 1 µM) of 475 nM. For the same compound, the IC50 (second compound 3.16 µM) was 495 nM, the IC50 (second compound 10 µM) was 538 nM and the viability, T/C (second compound 0.1 µM, first compound 0.00316 µM) was 110%. It also gave a viability, T/C (second compound 0.1 µM, first compound 0.01 µM) of 96.3%, a viability, T/C [1] of 98.1% and a viability, T/C [2] of 85.8%. It also gave a viability, T/C [3] of 68.6%, a viability, T/C [4] of 37.2% and a viability, T/C (second compound 0.316 µM, first compound 0.00316 µM) of 94.3%. The viability, T/C (second compound 0.316 µM, first compound 0.01 µM) was 106%, the viability, T/C [7] was 95.2% and the viability, T/C [8] was 83.8%. For the same compound, the viability, T/C [9] was 58.7%, the viability, T/C [10] was 37.2% and the viability, T/C (second compound 1 µM, first compound 0.00316 µM) was 97.8%. The viability, T/C (second compound 1 µM, first compound 0.01 µM) was 98.2%, the viability, T/C [13] was 101% and the viability, T/C [14] was 84.8%. It also gave a viability, T/C [15] of 57.4%, a viability, T/C [16] of 37.3% and a viability, T/C (second compound 3.16 µM, first compound 0.00316 µM) of 99.7%. It also gave a viability, T/C (second compound 3.16 µM, first compound 0.01 µM) of 101%, a viability, T/C [19] of 92.1% and a viability, T/C [20] of 81.5%. For the same compound, the viability, T/C [21] was 58%, the viability, T/C [22] was 37% and the viability, T/C (second compound 10 µM, first compound 0.00316 µM) was 89.9%. It also gave a viability, T/C (second compound 10 µM, first compound 0.01 µM) of 89.2%, a viability, T/C [25] of 89.1% and a viability, T/C [26] of 66.2%. For the same compound, the viability, T/C [27] was 60.5% and the viability, T/C [28] was 41%.
In the case of `COc1ccc([C@@H](O)c2cc(-c3ncnc4cc(N5CCOCC5)ccc34)c(F)cc2Cl)nn1` + Cc1ccccc1N=Nc1ccc(NC(=O)c2ccnn2C)c(C)c1, the IC50 (second compound 0.1 µM) is reported as > 10000 nM, the IC50 (second compound 0.316 µM) is reported as > 10000 nM and the IC50 (second compound 1 µM) is reported as > 10000 nM. For the same compound, the IC50 (second compound 3.16 µM) was > 10000 nM, the IC50 (second compound 10 µM) was > 10000 nM and the viability, T/C [1] was 92.6%. It also gave a viability, T/C [2] of 106%, a viability, T/C [3] of 114% and a viability, T/C [4] of 121%. For the same compound, the viability, T/C [5] was 124%, the viability, T/C [6] was 96.6% and the viability, T/C [7] was 98.1%. For the same compound, the viability, T/C [8] was 95.7%, the viability, T/C [9] was 104% and the viability, T/C [10] was 104%. For the same compound, the viability, T/C [11] was 111%, the viability, T/C [12] was 99.8% and the viability, T/C [13] was 96.6%. It also gave a viability, T/C [14] of 92%, a viability, T/C [15] of 94.6% and a viability, T/C [16] of 114%. It also gave a viability, T/C [17] of 129%, a viability, T/C [18] of 97% and a viability, T/C [19] of 96.7%. It also gave a viability, T/C [20] of 100%, a viability, T/C [21] of 91.8% and a viability, T/C [22] of 103%. It also gave a viability, T/C [23] of 112%, a viability, T/C [24] of 84.4% and a viability, T/C [25] of 94.6%. The viability, T/C [26] was 94.2%, the viability, T/C [27] was 90.8% and the viability, T/C [28] was 91%. The viability, T/C [29] was 91.4% and the viability, T/C [30] was 53.6%.
With `COc1cccc2c1C(=O)c1c(O)c3c(c(O)c1C2=O)CC(O)(C(=O)CO)CC3OC1CC(N)C(O)C(C)O1` (stereo not given) + Cc1cncc(-c2nc(NCCc3c[nH]c4ccccc34)c3ncn(C(C)C)c3n2)c1 the IC50 (second compound 0.1 µM) was < 31.6 nM, the IC50 (second compound 0.316 µM) was < 31.6 nM and the IC50 (second compound 1 µM) was < 31.6 nM. The IC50 (second compound 3.16 µM) was < 31.6 nM, the IC50 (second compound 10 µM) was < 31.6 nM and the viability, T/C [1] was 28.3%. For the same compound, the viability, T/C [2] was 17.7%, the viability, T/C [3] was 5% and the viability, T/C [4] was 0.93%. It also gave a viability, T/C [5] of 0.14%, a viability, T/C [6] of 0.22% and a viability, T/C [7] of 26.7%. It also gave a viability, T/C [8] of 16.3%, a viability, T/C [9] of 4.84% and a viability, T/C [10] of 0.28%. The viability, T/C [11] was 0.12%, the viability, T/C [12] was 0.18% and the viability, T/C [13] was 27.6%. It also gave a viability, T/C [14] of 15%, a viability, T/C [15] of 4.86% and a viability, T/C [16] of 0.26%. The viability, T/C [17] was 0.16%, the viability, T/C [18] was 0.25% and the viability, T/C [19] was 21.4%. For the same compound, the viability, T/C [20] was 15.9%, the viability, T/C [21] was 4.37% and the viability, T/C [22] was 0.22%. It also gave a viability, T/C [23] of 0.16%, a viability, T/C [24] of 0.28% and a viability, T/C [25] of 8.93%. For the same compound, the viability, T/C [26] was 5.47%, the viability, T/C [27] was 3.18% and the viability, T/C [28] was 0.37%. The viability, T/C [29] was 0.16% and the viability, T/C [30] was 0.24%.
